Measured values: ChEMBL document CHEMBL1687797, “A mecA-negative strain of methicillin-resistant Staphylococcus aureus with high-level β-lactam resistance contains mutations in three genes” (2010)
≈ marks a conversion by molar mass, not a printed value.

Experiments:
Format in all cases: functional
Staphylococcus aureus [1] = assay: Antimicrobial activity against methicillin-, tetracycline-susceptible and chromosomal mecA deficient Staphylococcus aureus COLnex
Staphylococcus aureus [2] = assay: Antimicrobial activity against beta-lactam-resistant and chromosomal mecA deficient Staphylococcus aureus CRB harboring PBP4 E183A F241R, GdpP N182K and AcrB I960V mutant genes selected after 21 days of serial passage in ceftobiprole; settings: 504 h
Staphylococcus aureus [3] = assay: Antimicrobial activity against methicillin-resistant and tetracycline-sensitive Staphylococcus aureus COLn
Staphylococcus aureus [4] = assay: Antimicrobial activity against methicillin-resistant Staphylococcus aureus COL
Staphylococcus aureus [5] = assay: Antimicrobial activity against beta-lactam-resistant and chromosomal mecA deficient Staphylococcus aureus CRB harboring PBP4 E183A F241R, GdpP N182K and AcrB I960V mutant genes selected after 21 days of serial passage; settings: 504 h

| Compound | MIC (Staphylococcus aureus [1]) [µg/mL] | MIC (Staphylococcus aureus [2]) [µg/mL] | MIC (Staphylococcus aureus [3]) [µg/mL] | MIC (Staphylococcus aureus [4]) [µg/mL] | MIC (Staphylococcus aureus [5]) [µg/mL] |
| --- | --- | --- | --- | --- | --- |
| CC1(C)S[C@@H]2[C@H](NC(=O)[C@H](N)c3ccccc3)C(=O)N2[C@H]1C(=O)O [AMPICILLIN] | < 0.25 | 256 (≈ 733 µM) |  |  |  |
| Cc1nnc(SCC2=C(C(=O)O)N3C(=O)[C@@H](NC(=O)Cn4cnnn4)[C@H]3SC2)s1 [CEFAZOLIN] | 0.5 (≈ 1.1 µM) | > 256 | 256 (≈ 563 µM) |  |  |
| CO[C@@]1(NC(=O)Cc2cccs2)C(=O)N2C(C(=O)O)=C(COC(N)=O)CS[C@@H]21 [CEFOXITIN] | 4 (≈ 9.36 µM) | 8 (≈ 18.7 µM) | 256 (≈ 599 µM) |  |  |
| Nc1nc(/C(=N/O)C(=O)N[C@@H]2C(=O)N3C(C(=O)O)=C(/C=C4\CCN([C@@H]5CCNC5)C4=O)CS[C@H]23)ns1 [CEFTOBIPROLE] | < 0.25 | 128 (≈ 239 µM) | 1 (≈ 1.87 µM) | 1 (≈ 1.87 µM) | 128 (≈ 239 µM) |
| CO/N=C(\C(=O)N[C@@H]1C(=O)N2C(C(=O)O)=C(CSc3nc(=O)c(O)nn3C)CS[C@H]12)c1csc(N)n1 [CEFTRIAXONE] | 4 (≈ 7.21 µM) | 256 (≈ 462 µM) | > 256 |  |  |
| CCOc1ccc2ccccc2c1C(=O)N[C@@H]1C(=O)N2[C@@H]1SC(C)(C)[C@@H]2C(=O)O [NAFCILLIN] | 0.5 (≈ 1.21 µM) | 128 (≈ 309 µM) | 256 (≈ 618 µM) |  |  |
